These results are taken from ChEMBL document CHEMBL4715877, “Asperginols A and B, Diterpene Pyrones, from an Aspergillus sp. and the Structure Revision of Previously Reported Analogues” (J Nat Prod, 2020).

What all share (type): functional, cell-based
The test system of assay [1] is HT-29. Kind of assay: Cytotoxicity against human HT-29 cells assessed as reduction in cell viability after 72 hrs by MTT assay. (Formazan colour is commonly taken as a measure of viable cells.)
Assay [2] deals with HepG2. In words: Cytotoxicity against human HepG2 cells assessed as reduction in cell viability after 72 hrs by MTT assay.
In assay [3] the test system is HCT-116. In words: Cytotoxicity against human HCT-116 cells assessed as reduction in cell viability after 72 hrs by MTT assay.

For orientation: IC50 means the concentration that inhibits the measured activity by half. With `C=C1[C@H](O)C[C@@H]2[C@](C)(CC[C@H]3OC(C)(C)[C@@H](O)CC[C@]23C)[C@@H]1Cc1c(O)c(C)c(C)oc1=O`, the IC50 entry in assay [1] (ht-29), in assay [2] and in assay [3] was “Not Active” in each case.
As for `C=C1CC[C@@H]2[C@](C)(CC[C@H]3OC(C)(C)[C@@H](OC(=O)/C=C/C=C/[C@@H](C)CC)CC[C@]23C)[C@@H]1Cc1c(O)c(C)c(C)oc1=O`, the IC50 result in assay [1] (ht-29), in assay [2] and in assay [3] was “Not Active” in each case.
Regarding `C=C1[C@H](O)C[C@@H]2[C@](C)(CC[C@H]3OC(C)(C)[C@@H](OC(C)=O)CC[C@]23C)[C@@H]1Cc1c(O)c(C)c(C)oc1=O`, the IC50 entry in assay [1] (ht-29), in assay [2] and in assay [3] was “Not Active” in each case.
In the case of `C=C1[C@H](O)C[C@@H]2[C@](C)(CC[C@H]3OC(C)(C)[C@@H](OC(=O)/C=C/C=C/[C@@H](C)CC)CC[C@]23C)[C@@H]1Cc1c(O)c(C)c(C)oc1=O`, the IC50 result in assay [1] (ht-29), in assay [2] and in assay [3] was “Not Active” throughout.
Regarding `C=C1[C@H](O)C[C@@H]2[C@](C)(CC[C@H]3OC(C)(C)[C@@H](OC(=O)/C=C/C=C/C=C/[C@@H](C)CC)CC[C@]23C)[C@@H]1Cc1c(O)c(C)c(C)oc1=O`, the IC50 in assay [1] (Homo sapiens, HT-29, 72 h, read-out: IC50) is 7.6 µM; in assay [2] it was “Not Active”; in assay [3], “Not Active”.
Consider `C=C1CC[C@@H]2[C@](C)(CC[C@H]3OC(C)(C)[C@@H](O)CC[C@]23C)[C@@H]1Cc1c(O)c(C)c(C)oc1=O`, for which the IC50 result in assay [1] (ht-29), in assay [2] and in assay [3] was “Not Active” throughout.
